According to EP4782450A1, “NOVEL SKELETAL DERIVATIVE EFFECTIVE FOR HER2 MUTATION, AND PHARMACEUTICAL COMPOSITION COMPRISING SAME” (Hanmi Pharm. Co., Ltd., priority 2023, dated 2025):

Columns and labels:
Ba/F3 HER2 A775insYVMA = assay: Growth inhibition of Ba/F3 cells engineered to overexpress HER2 A775_G776insYVMA (CellTiter-Glo luminescence); assay type: cell-based; conditions: Mus musculus, BaF3, 72 hours, concentrations 1000 to 0.32 nM, read-out: Ba/F3 HER2^YVMA GI50 class
Summary of the method: (§1)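 Ba/F3 cells overexpressing HER2 A775_G776insYVMA (1000–0.32 nM) or wild-type EGFR (10000–8 nM) treated 72 h at 37°C in RPMI/10% FBS. Viability by CellTiter-Glo luminescence; GI50 by nonlinear regression with untreated growth set at 100%.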

[1] = tested on: wild-type EGFR overexpressing Ba/F3 cells; assay: Growth inhibition of Ba/F3 cells engineered to overexpress wild-type EGFR (CellTiter-Glo luminescence); assay type: cell-based; conditions: Mus musculus, BaF3, 72 hours, concentrations 10000 to 8 nM, read-out: Ba/F3 EGFR^WT GI50 class
Summary of the method: as §1

## C=CC(=O)N(C)CC#Cc1ccc2ncnc(Nc3ccc(Oc4ccn5ncnc5c4)c(C)c3)c2n1 [Example 68, N-(3-(4-((4-([1,2,4]triazolo[1,5-a]pyridin-7-yloxy)-3-methylphenyl)amino)pyrido[3,2-d]pyrimidin-6-yl)prop-2-yn-1-yl)-N-methylacrylamide]
Ba/F3 HER2 A775insYVMA
  GI50: < 100 nM
[1]
  GI50: 100 to 1000 nM

## C=CC(=O)N(C)CC#Cc1ncc2ncnc(Nc3ccc(Oc4ccn5ncnc5c4)c(C)c3)c2n1 [Example 69, N-(3-(8-((4-([1,2,4]triazolo[1,5-a]pyridin-7-yloxy)-3-methylphenyl)amino)pyrimido[5,4-d]pyrimidin-2-yl)prop-2-yn-1-yl)-N-methylacrylamide]
Ba/F3 HER2 A775insYVMA
  GI50: 100 to 1000 nM
[1]
  GI50: 100 to 1000 nM

## C=CC(=O)N(C)CC#Cc1ccc2ncc(C#N)c(Nc3ccc(Oc4ccn5ncnc5c4)c(C)c3)c2c1 [Example 70, N-(3-(4-((4-([1,2,4]triazolo[1,5-a]pyridin-7-yloxy)-3-methylphenyl)amino)-3-cyanoquinolin-6-yl)prop-2-yn-1-yl)-N-methylacrylamide]
Ba/F3 HER2 A775insYVMA
  GI50: 100 to 1000 nM
[1]
  GI50: 1000 to 5000 nM

## C=CC(=O)N(C)CC#Cc1ccc2ncnc(Nc3ccc(Oc4ccc5c(c4)ncn5C)c(C)c3)c2n1 [Example 71, N-methyl-N-(3-(4-((3-methyl-4-((1-methyl-1H-benzo[d]imidazol-5-yl)oxy)phenyl)amino)pyrido[3,2-d]pyrimidin-6-yl)prop-2-yn-1-yl)acrylamide]
Ba/F3 HER2 A775insYVMA
  GI50: 100 to 1000 nM
[1]
  GI50: 1000 to 5000 nM

## C=CC(=O)N(C)CC#Cc1ncc2ncnc(Nc3ccc(Oc4ccc5c(c4)ncn5C)c(C)c3)c2n1 [Example 72]
Ba/F3 HER2 A775insYVMA
  GI50: 100 to 1000 nM
[1]
  GI50: < 100 nM

## C=CC(=O)N(C)CC#Cc1cc2c(Nc3ccc(Oc4ccn5ncnc5c4)c(C)c3)ncnc2cc1OC [Example 73, N-(3-(4-((4-([1,2,4]triazolo[1,5-a]pyridin-7-yloxy)-3-methylphenyl)amino)-7-methoxyquinazolin-6-yl)prop-2-yn-1-yl)-N-methylacrylamide]
Ba/F3 HER2 A775insYVMA
  GI50: 1000 to 5000 nM
[1]
  GI50: 1000 to 5000 nM

## C=CC(=O)N1CCC[C@@H]1C#Cc1ccc2ncnc(Nc3ccc(Oc4ccn5ncnc5c4)c(C)c3)c2c1 [Example 74, (R)-1-(2-((4-((4-([1,2,4]triazolo[1,5-a]pyridin-7-yloxy)-3-methylphenyl)amino)quinazolin-6-yl)ethynyl)pyrrolidin-1-yl)prop-2-en-1-one]
Ba/F3 HER2 A775insYVMA
  GI50: < 100 nM
[1]
  GI50: < 100 nM

## C=CC(=O)N1CCC[C@H]1C#Cc1ccc2ncnc(Nc3ccc(Oc4ccn5ncnc5c4)c(C)c3)c2c1 [Example 75, (S)-1-(2-((4-((4-([1,2,4]triazolo[1,5-a]pyridin-7-yloxy)-3-methylphenyl)amino)quinazolin-6-yl)ethynyl)pyrrolidin-1-yl)prop-2-en-1-one]
Ba/F3 HER2 A775insYVMA
  GI50: < 100 nM
[1]
  GI50: 100 to 1000 nM

## C=CC(=O)N1CCCC[C@@H]1C#Cc1ccc2ncnc(Nc3ccc(Oc4ccn5ncnc5c4)c(C)c3)c2c1 [Example 76, (R)-1-(2-((4-((4-([1,2,4]triazolo[1,5-a]pyridin-7-yloxy)-3-methylphenyl)amino)quinazolin-6-yl)ethynyl)piperidin-1-yl)prop-2-en-1-one]
Ba/F3 HER2 A775insYVMA
  GI50: < 100 nM
[1]
  GI50: 100 to 1000 nM

## C=CC(=O)N1CCCC[C@H]1C#Cc1ccc2ncnc(Nc3ccc(Oc4ccn5ncnc5c4)c(C)c3)c2c1 [Example 77, (S)-1-(2-((4-((4-([1,2,4]triazolo[1,5-a]pyridin-7-yloxy)-3-methylphenyl)amino)quinazolin-6-yl)ethynyl)piperidin-1-yl)prop-2-en-1-one]
Ba/F3 HER2 A775insYVMA
  GI50: < 100 nM
[1]
  GI50: < 100 nM

## C=CC(=O)N1CC[C@@H]1C#Cc1ccc2ncnc(Nc3ccc(Oc4ccn5ncnc5c4)c(C)c3)c2c1 [Example 78, (R)-1-(2-((4-((4-([1,2,4]triazolo[1,5-a]pyridin-7-yloxy)-3-methylphenyl)amino)quinazolin-6-yl)ethynyl)azetidin-1-yl)prop-2-en-1-one]
Ba/F3 HER2 A775insYVMA
  GI50: < 100 nM
[1]
  GI50: 100 to 1000 nM

## C=CC(=O)N1CC[C@H]1C#Cc1ccc2ncnc(Nc3ccc(Oc4ccn5ncnc5c4)c(C)c3)c2c1 [Example 79, (S)-1-(2-((4-((4-([1,2,4]triazolo[1,5-a]pyridin-7-yloxy)-3-methylphenyl)amino)quinazolin-6-yl)ethynyl)azetidin-1-yl)prop-2-en-1-one]
Ba/F3 HER2 A775insYVMA
  GI50: 1000 to 5000 nM
[1]
  GI50: 1000 to 5000 nM

## C=CC(=O)N1CCC[C@@H]1C#Cc1ccc2ncnc(Nc3ccc(Oc4ccn5ncnc5c4)c(C)c3)c2n1 [Example 80, (R)-1-(2-((4-((4-([1,2,4]triazolo[1,5-a]pyridin-7-yloxy)-3-methylphenyl)amino)pyrido[3,2-d]pyrimidin-6-yl)ethynyl)pyrrolidin-1-yl)prop-2-en-1-one]
Ba/F3 HER2 A775insYVMA
  GI50: < 100 nM
[1]
  GI50: 100 to 1000 nM

## C=CC(=O)N1CCC[C@H]1C#Cc1ccc2ncnc(Nc3ccc(Oc4ccn5ncnc5c4)c(C)c3)c2n1 [Example 81, (S)-1-(2-((4-((4-([1,2,4]triazolo[1,5-a]pyridin-7-yloxy)-3-methylphenyl)amino)pyrido[3,2-d]pyrimidin-6-yl)ethynyl)pyrrolidin-1-yl)prop-2-en-1-one]
Ba/F3 HER2 A775insYVMA
  GI50: < 100 nM
[1]
  GI50: 100 to 1000 nM

## C=CC(=O)N1CCCC[C@@H]1C#Cc1ccc2ncnc(Nc3ccc(Oc4ccn5ncnc5c4)c(C)c3)c2n1 [Example 82, (R)-1-(2-((4-((4-([1,2,4]triazolo[1,5-a]pyridin-7-yloxy)-3-methylphenyl)amino)pyrido[3,2-d]pyrimidin-6-yl)ethynyl)piperidin-1-yl)prop-2-en-1-one]
Ba/F3 HER2 A775insYVMA
  GI50: < 100 nM
[1]
  GI50: 100 to 1000 nM

## C=CC(=O)N1CCC[C@@H]1C#Cc1ncc2ncnc(Nc3ccc(Oc4ccn5ncnc5c4)c(C)c3)c2n1 [Example 83, (R)-1-(2-((8-((4-([1,2,4]triazolo[1,5-a]pyridin-7-yloxy)-3-methylphenyl)amino)pyrimido[5,4-d]pyrimidin-2-yl)ethynyl)pyrrolidin-1-yl)prop-2-en-1-one]
Ba/F3 HER2 A775insYVMA
  GI50: < 100 nM
[1]
  GI50: < 100 nM

## C=CC(=O)N1CCC[C@H]1C#Cc1ncc2ncnc(Nc3ccc(Oc4ccn5ncnc5c4)c(C)c3)c2n1 [Example 84, (S)-1-(2-((8-((4-([1,2,4]triazolo[1,5-a]pyridin-7-yloxy)-3-methylphenyl)amino)pyrimido[5,4-d]pyrimidin-2-yl)ethynyl)pyrrolidin-1-yl)prop-2-en-1-one]
Ba/F3 HER2 A775insYVMA
  GI50: < 100 nM
[1]
  GI50: 100 to 1000 nM

## C=CC(=O)N1CCC[C@@H]1C#Cc1ccc2ncnc(Nc3ccc(Oc4ccc5c(c4)ncn5C)c(C)c3)c2c1 [Example 85, (R)-1-(2-((4-((3-methyl-4-((1-methyl-1H-benzo[d]imidazol-5-yl)oxy)phenyl)amino)quinazolin-6-yl)ethynyl)pyrrolidin-1-yl)prop-2-en-1-one]
Ba/F3 HER2 A775insYVMA
  GI50: < 100 nM
[1]
  GI50: 100 to 1000 nM

## C=CC(=O)N1CCC[C@@H]1C#Cc1ccc2ncnc(Nc3ccc(OC4=CC5N=CN(C)C5C=C4)c(C)c3)c2n1 (stereo partly drawn) [Example 86, 1-((2R)-2-((4-((3-methyl-4-((1-methyl-3a,7a-dihydro-1H-benzo[d]imidazol-5-yl)oxy)phenyl)amino)pyrido[3,2-d]pyrimidin-6-yl)ethynyl)pyrrolidin-1-yl)prop-2-en-1-one]
Ba/F3 HER2 A775insYVMA
  GI50: < 100 nM
[1]
  GI50: 1000 to 5000 nM

## C=CC(=O)N1CCCC[C@@H]1C#Cc1ccc2ncnc(Nc3ccc(Oc4ccc5c(c4)ncn5C)c(C)c3)c2n1 [Example 88, (R)-1-(2-((4-((3-methyl-4-((1-methyl-1H-benzo[d]imidazol-5-yl)oxy)phenyl)amino)pyrido[3,2-d]pyrimidin-6-yl)ethynyl)piperidin-1-yl)prop-2-en-1-one]
Ba/F3 HER2 A775insYVMA
  GI50: < 100 nM
[1]
  GI50: 1000 to 5000 nM
